Key:
Assay type in all cases: functional
[1] = system: HCT-15; assay: Growth inhibition of human HCT15 cells assessed as cell growth at 1 uM after 48 hrs by SRB assay; settings: HCT-15, 48 h, read-out: Activity
[2] = system: HOP-92; assay: Growth inhibition of human HOP92 cells assessed as cell growth at 1 uM after 48 hrs by SRB assay; settings: HOP-92, 48 h, read-out: Activity
[3] = system: SF-295; assay: Growth inhibition of human SF295 cells assessed as cell growth at 1 uM after 48 hrs by SRB assay; settings: SF-295, 48 h, read-out: Activity
[4] = system: T47D; assay: Growth inhibition of human T47D cells assessed as cell growth at 10 uM after 48 hrs by SRB assay; settings: read-out: Activity
[5] = system: COLO 205; assay: Growth inhibition of human COLO205 cells after 48 hrs by […] growth inhibition assay; settings: COLO 205, 48 h
[6] = system: IGROV-1; assay: Growth inhibition of human IGROV1 cells after 48 hrs by […] growth inhibition assay; settings: IGROV-1, 48 h
[7] = system: MDA-MB-231; assay: Growth inhibition of human MDA-MB-231 cells assessed as cell growth at 1 mM after 48 hrs by SRB assay; settings: MDA-MB-231, 48 h, read-out: Activity
[8] = system: DU-145; assay: Growth inhibition of human DU145 cells assessed as cell growth at 0.1 uM after 48 hrs by SRB assay; settings: DU-145, 48 h, read-out: Activity
[9] = system: SN12C; assay: Growth inhibition of human SN12C cells assessed as cell growth at 1 uM after 48 hrs by SRB assay; settings: read-out: Activity
[10] = system: M14; assay: Growth inhibition of human M14 cells assessed as cell growth at 10 uM after 48 hrs by SRB assay; settings: M14, 48 h, read-out: Activity
[11] = system: NCI-H522; assay: Growth inhibition of human NCI-H522 cells assessed as cell growth at 10 uM after 48 hrs by SRB assay; settings: NCI-H522, 48 h, read-out: Activity
[12] = system: CAKI-1; assay: Growth inhibition of human Caki1 cells after 48 hrs by […] growth inhibition assay; settings: CAKI-1, 48 h
[13] = system: NCI-H23; assay: Growth inhibition of human NCI-H23 cells assessed as cell growth at 100 uM after 48 hrs by SRB assay; settings: NCI-H23, 48 h, read-out: Activity
[14] = system: CCRF-CEM; assay: Growth inhibition of human CCRF-CEM cells assessed as cell growth at 0.1 uM after 48 hrs by SRB assay; settings: read-out: Activity
[15] = system: MDA-MB-435; assay: Growth inhibition of human MDA-MB-435 cells after 48 hrs by SRB assay; settings: MDA-MB-435, 48 h
[16] = system: NCI-H522; assay: Growth inhibition of human NCI-H522 cells assessed as cell growth at 0.1 uM after 48 hrs by SRB assay; settings: NCI-H522, 48 h, read-out: Activity
[17] = system: A498; assay: Growth inhibition of human A498 cells after 48 hrs by […] growth inhibition assay; settings: A498, 48 h
[18] = system: CCRF-CEM; assay: Growth inhibition of human CCRF-CEM cells assessed as cell growth at 1 mM after 48 hrs by SRB assay; settings: read-out: Activity
[19] = system: LOX IMVI; assay: Growth inhibition of human LOXIMVI cells assessed as cell growth at 1 uM after 48 hrs by SRB assay; settings: read-out: Activity
[20] = system: SK-OV-3; assay: Growth inhibition of human SKOV3 cells assessed as cell growth at 1 uM after 48 hrs by SRB assay; settings: SK-OV-3, 48 h, read-out: Activity
[21] = system: 786-0; assay: Growth inhibition of human 786-0 cells assessed as cell growth at 1 uM after 48 hrs by SRB assay; settings: 786-0, 48 h, read-out: Activity
[22] = system: SF-295; assay: Growth inhibition of human SF295 cells assessed as cell growth at 1 mM after 48 hrs by SRB assay; settings: SF-295, 48 h, read-out: Activity
[23] = system: NCI-H23; assay: Growth inhibition of human NCI-H23 cells assessed as cell growth at 1 mM after 48 hrs by SRB assay; settings: NCI-H23, 48 h, read-out: Activity
[24] = system: SNB-75; assay: Growth inhibition of human SNB75 cells assessed as cell growth at 1 uM after 48 hrs by SRB assay; settings: SNB-75, 48 h, read-out: Activity
[25] = system: UO-31; assay: Growth inhibition of human UO31 cells assessed as cell growth at 1 uM after 48 hrs by SRB assay; settings: UO-31, 48 h, read-out: Activity
[26] = system: MCF7; assay: Growth inhibition of human MCF7 cells after 48 hrs by […] growth inhibition assay; settings: MCF7, 48 h
[27] = system: LOX IMVI; assay: Growth inhibition of human LOXIMVI cells after 48 hrs by […] growth inhibition assay
[28] = system: A498; assay: Growth inhibition of human A498 cells assessed as cell growth at 0.1 uM after 48 hrs by SRB assay; settings: A498, 48 h, read-out: Activity
[29] = system: SF-539; assay: Growth inhibition of human SF539 cells assessed as cell growth at 1 uM after 48 hrs by SRB assay; settings: SF-539, 48 h, read-out: Activity
[30] = system: RXF 393; assay: Growth inhibition of human RXF393 cells assessed as cell growth at 10 uM after 48 hrs by SRB assay; settings: RXF 393, 48 h, read-out: Activity
[31] = system: CAKI-1; assay: Growth inhibition of human Caki1 cells assessed as cell growth at 1 mM after 48 hrs by SRB assay; settings: CAKI-1, 48 h, read-out: Activity
[32] = system: OVCAR-4; assay: Growth inhibition of human OVCAR4 cells assessed as cell growth at 0.1 uM after 48 hrs by SRB assay; settings: OVCAR-4, 48 h, read-out: Activity
[33] = read-out: LC50 (the source's name)
[34] = read-out: pLC50 (the source's name) (converted)

CNC(=O)NC[C@H]1O[C@@H](n2cnc3c(NC(=O)Nc4ccccc4)ncnc32)[C@H](O[Si](C)(C)C(C)(C)C)[C@@H]1CC(=O)N(C)OC
growth at 1 µM [1]: 94%
growth at 1 µM [2]: 93%
growth at 1 µM [3]: 93%
growth at 10 µM [4]: 84%
GI50 ([5]; read-out: GI50): 12.3 µM
CC50 [5, 33]: > 100 µM
TGI ([5]; read-out: TGI): > 100 µM
GI50 ([5]; read-out: pGI50 (converted)): 12.3 µM
CC50 [5, 34]: > 100 µM
TGI ([5]; read-out: pTGI (converted)): > 100 µM
GI50 ([6]; read-out: GI50): 3.72 µM
CC50 [6, 33]: > 100 µM
TGI ([6]; read-out: TGI): 65.7 µM
GI50 ([6]; read-out: pGI50 (converted)): 3.72 µM
CC50 [6, 34]: > 100 µM
TGI ([6]; read-out: pTGI (converted)): 66.1 µM
growth at 1000 µM [7]: 5%
growth at 0.1 µM [8]: 107%
growth at 1 µM [9]: 104%
growth at 10 µM [10]: 91%
growth at 10 µM [11]: 84%
GI50 ([12]; read-out: GI50): 53.8 µM
CC50 [12, 33]: > 100 µM
TGI ([12]; read-out: TGI): > 100 µM
GI50 ([12]; read-out: pGI50 (converted)): 53.7 µM
CC50 [12, 34]: > 100 µM
TGI ([12]; read-out: pTGI (converted)): > 100 µM
growth at 100 µM [13]: 71%
growth at 0.1 µM [14]: 101%
GI50 ([15]; read-out: GI50): 10.9 µM
LC50 ([15]; read-out: LC50): > 100 µM
TGI ([15]; read-out: TGI): > 100 µM
GI50 ([15]; read-out: pGI50 (converted)): 11 µM
LC50 ([15]; read-out: pLC50 (converted)): > 100 µM
TGI ([15]; read-out: pTGI (converted)): > 100 µM
growth at 0.1 µM [16]: 90%
GI50 ([17]; read-out: GI50): 3.87 µM
CC50 [17, 33]: > 100 µM
TGI ([17]; read-out: TGI): 40.3 µM
GI50 ([17]; read-out: pGI50 (converted)): 3.89 µM
CC50 [17, 34]: > 100 µM
TGI ([17]; read-out: pTGI (converted)): 40.7 µM
growth at 1000 µM [18]: 23%
growth at 1 µM [19]: 96%
growth at 1 µM [20]: 97%
growth at 1 µM [21]: 92%
growth at 1000 µM [22]: 20%
growth at 1000 µM [23]: 43%
growth at 1 µM [24]: 95%
growth at 1 µM [25]: 89%
GI50 ([26]; read-out: GI50): 5.59 µM
CC50 [26, 33]: > 100 µM
TGI ([26]; read-out: TGI): > 100 µM
GI50 ([26]; read-out: pGI50 (converted)): 5.62 µM
CC50 [26, 34]: > 100 µM
TGI ([26]; read-out: pTGI (converted)): > 100 µM
GI50 ([27]; read-out: GI50): 7.3 µM
CC50 [27, 33]: > 100 µM
TGI ([27]; read-out: TGI): > 100 µM
GI50 ([27]; read-out: pGI50 (converted)): 7.24 µM
CC50 [27, 34]: > 100 µM
TGI ([27]; read-out: pTGI (converted)): > 100 µM
growth at 0.1 µM [28]: 90%
growth at 1 µM [29]: 94%
growth at 10 µM [30]: 98%
growth at 1000 µM [31]: 47%
growth at 0.1 µM [32]: 100%
